Tests used:
Adenosine receptor A2a = Adenosine receptor A2a (Rattus norvegicus, UniProt P30543)
Description: Inhibition of [3H]-CGS- 21680 binding to Adenosine A2A receptor in rat striatal homogenates.

Adenosine receptor A1 = biological target: T1, Adenosine receptor A1 (Rattus norvegicus, UniProt P25099); assay: biochemical
T1 sequence (P25099 whole entry): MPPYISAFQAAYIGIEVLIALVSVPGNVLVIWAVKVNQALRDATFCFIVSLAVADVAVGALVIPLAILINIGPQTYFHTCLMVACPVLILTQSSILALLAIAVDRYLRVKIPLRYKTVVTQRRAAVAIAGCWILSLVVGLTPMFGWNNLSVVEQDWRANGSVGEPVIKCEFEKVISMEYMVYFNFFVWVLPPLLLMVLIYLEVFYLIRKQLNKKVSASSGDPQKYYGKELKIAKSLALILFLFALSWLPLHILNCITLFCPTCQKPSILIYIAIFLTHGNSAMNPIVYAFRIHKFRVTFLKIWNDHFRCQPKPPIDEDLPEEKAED
Description: Inhibition of [3H]-CHA binding to Adenosine A1 receptor in rat whole brain homogenates.

[1] = tested on: Adenosine receptor A2a (Oryctolagus cuniculus)

Chain of Adenosine receptor A2a (P30543 whole entry): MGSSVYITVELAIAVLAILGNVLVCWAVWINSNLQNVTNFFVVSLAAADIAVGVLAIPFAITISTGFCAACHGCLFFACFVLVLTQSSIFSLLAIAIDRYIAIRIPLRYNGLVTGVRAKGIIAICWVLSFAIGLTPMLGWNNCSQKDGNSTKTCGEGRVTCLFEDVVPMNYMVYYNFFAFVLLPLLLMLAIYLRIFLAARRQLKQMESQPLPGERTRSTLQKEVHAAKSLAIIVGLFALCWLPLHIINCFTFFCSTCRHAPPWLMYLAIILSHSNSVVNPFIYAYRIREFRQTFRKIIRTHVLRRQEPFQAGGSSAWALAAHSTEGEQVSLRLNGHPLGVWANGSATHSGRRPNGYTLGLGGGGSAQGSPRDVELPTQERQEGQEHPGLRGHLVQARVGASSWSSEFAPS

| Structure (SMILES) | Ki (Adenosine receptor A2a) | Ki (Adenosine receptor A1) | ED50 [1] |
| --- | --- | --- | --- |
| CCC(C)Cn1ncc2c1nc(N)n1nc(-c3ccco3)nc21 (centres undefined) | 12 nM | 116 nM |  |
| Nc1nc2c(cnn2-c2ccccc2)c2nc(-c3ccco3)nn12 | 22.7 nM | 119 nM | > 1 µM |
| Nc1nc2c(cnn2CCCc2ccccc2)c2nc(-c3ccco3)nn12 [SCH-63390] | 2.4 nM | 504 nM |  |
| Nc1nc2n[nH]cc2c2nc(-c3ccco3)nn12 | 22.6 nM | 210 nM |  |
| OCCn1ncc2c1nc(NCc1ccccc1)n1nc(-c3ccco3)nc21 | 166 nM | 330 nM |  |
| Nc1nc2c(cnn2Cc2ccc(F)cc2)c2nc(-c3ccco3)nn12 | 12 nM | 189 nM | 10.6 µM |
| Nc1nc2c(cnn2CCOCc2ccccc2)c2nc(-c3ccco3)nn12 | > 1000 nM | > 1000 nM |  |

Next, values leading:

| Ki (Adenosine receptor A2a) | Ki (Adenosine receptor A1) | ED50 [1] | Structure (SMILES) |
| --- | --- | --- | --- |
| 77.7 nM |  |  | Nc1nc2c(cnn2CCO)c2nc(-c3ccco3)nn12 |
|  |  | 0.004 µM | Nc1nc2nn(Cc3ccc(F)cc3)cc2c2nc(-c3ccco3)nn12 |
|  |  | 0.3 µM | CCCCn1ncc2c1nc(N)n1nc(-c3ccco3)nc21 |
| 260 nM | 430 nM |  | CC(C)(C)n1ncc2c1nc(N)n1nc(-c3ccco3)nc21 |
| 5.6 nM | 471 nM | 0.03 µM | Nc1nc2c(cnn2CCN2CCOCC2)c2nc(-c3ccco3)nn12 |
| 21 nM | 2710 nM |  | Nc1nc2c(cnn2CCCCc2ccccc2)c2nc(-c3ccco3)nn12 |
| 22 nM | > 3000 nM | < 1 µM | CC(C)Cc1ccc(CCn2ncc3c2nc(N)n2nc(-c4ccco4)nc32)cc1 |
